The results in this text go back to ChEMBL document CHEMBL1139115, “Thyroid receptor ligands. Part 7: Indirect antagonists of the thyroid hormone receptor with improved affinity” (Bioorg Med Chem Lett, 2007).

The target of assay [1] is T1, Thyroid hormone receptor alpha (Homo sapiens, UniProt P10827).
T1 sequence (P10827 whole entry): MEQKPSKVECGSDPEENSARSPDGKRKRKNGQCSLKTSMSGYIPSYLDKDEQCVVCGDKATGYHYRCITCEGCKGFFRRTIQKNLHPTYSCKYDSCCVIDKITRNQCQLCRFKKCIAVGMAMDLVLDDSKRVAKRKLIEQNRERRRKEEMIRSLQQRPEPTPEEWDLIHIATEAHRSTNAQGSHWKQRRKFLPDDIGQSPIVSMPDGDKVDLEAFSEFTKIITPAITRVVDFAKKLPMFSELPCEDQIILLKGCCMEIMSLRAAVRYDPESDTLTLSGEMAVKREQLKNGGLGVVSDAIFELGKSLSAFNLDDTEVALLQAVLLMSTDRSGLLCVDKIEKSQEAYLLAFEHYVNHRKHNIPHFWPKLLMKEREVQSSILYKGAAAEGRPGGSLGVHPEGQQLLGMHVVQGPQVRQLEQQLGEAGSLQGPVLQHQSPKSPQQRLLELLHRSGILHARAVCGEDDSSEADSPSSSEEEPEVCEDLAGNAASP
Description: Binding affinity at human TRalpha1.

For another assay, the species on record is Homo sapiens. Description: Selectivity for human TR-alpha-1 to human TRbeta1.
Assay [2] addresses T2, Thyroid hormone receptor beta (Homo sapiens, UniProt P10828).
T2 sequence (P10828 whole entry): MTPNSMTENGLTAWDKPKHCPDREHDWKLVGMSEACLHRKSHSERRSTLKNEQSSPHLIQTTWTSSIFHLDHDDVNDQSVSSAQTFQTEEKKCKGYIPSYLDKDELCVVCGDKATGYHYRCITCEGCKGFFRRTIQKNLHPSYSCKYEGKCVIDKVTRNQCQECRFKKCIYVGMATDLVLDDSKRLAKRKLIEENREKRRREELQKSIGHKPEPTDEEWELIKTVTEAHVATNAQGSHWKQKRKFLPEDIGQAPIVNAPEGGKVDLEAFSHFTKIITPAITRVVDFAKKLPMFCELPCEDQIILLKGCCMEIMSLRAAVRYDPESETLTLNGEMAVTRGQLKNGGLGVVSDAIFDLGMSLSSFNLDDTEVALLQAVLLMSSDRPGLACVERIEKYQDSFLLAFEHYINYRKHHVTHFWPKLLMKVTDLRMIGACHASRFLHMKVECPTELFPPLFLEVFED
The assay is described as follows: Binding affinity at human TRbeta1.

In assay [3] the target is T1, Thyroid hormone receptor alpha.
Description: Agonist activity at human TR-alpha-1 expressed in CHO cells assessed as TRAF-alpha-1-driven gene transactivation by alkaline phosphatase reporter gene assay
Assay [4] deals with T2, Thyroid hormone receptor beta. Description: Agonist activity at human TR-beta-1 expressed in CHO cells assessed as TRAF-beta-1-driven gene transactivation by alkaline phosphatase reporter gene assay. In kind it is functional, cell-based. On the technique in general: Reporter assays use an easily measured gene product as a stand-in for the process of interest.

Usually IC50 stands for the concentration that inhibits the measured activity by half. As to `Cc1cccc(COc2c(Br)cc(CCC(=O)O)cc2Br)c1`, the 50% inhibitory concentration (IC50) in assay [1] was 360 nM; in assay [2], 120 nM. The Ratio IC50 in the assay listed under Homo sapiens came out at 1.8.

With `O=C(O)CCc1cc(Br)c(OCc2cccc(C(F)(F)F)c2)c(Br)c1`, the values for the IC50 in assay [1] and in assay [2] were 370 nM and 160 nM, respectively. Further, the Ratio IC50 in the assay filed under Homo sapiens stood at 1.4.

Take `O=C(O)CCc1cc(Br)c(OCc2cccc(Cl)c2)c(Br)c1`: the values for the IC50 in assay [1] and in assay [2] were 500 nM and 190 nM, respectively. In the assay listed under Homo sapiens, the Ratio IC50 turned out to be 1.5.

As to `Cc1ccccc1COc1c(Br)cc(CCC(=O)O)cc1Br`, the IC50 in assay [1] is 1300 nM; in assay [2], 200 nM. Also, the Ratio IC50 in the assay filed under Homo sapiens is 3.8.

Consider `O=C(O)CCc1cc(Br)c(OCc2ccccc2)c(Br)c1`, for which the IC50 stood at 680 nM in assay [1] and 230 nM in assay [2]. Further, in the assay filed under Homo sapiens, the Ratio IC50 amounted to 1.7.

As for `Cc1ccc(COc2c(Br)cc(CCC(=O)O)cc2Br)cc1`, the IC50 in assay [1] amounted to 600 nM; in assay [2], 360 nM. For the same compound, the Ratio IC50 in the assay filed under Homo sapiens was 0.98.

As to `Nc1cccc(COc2c(Br)cc(CCC(=O)O)cc2Br)c1`, the half-maximal inhibitory concentration (IC50) in assay [1] was 2600 nM; in assay [2], 820 nM. For the same compound, in the assay listed under Homo sapiens, the Ratio IC50 is 4.5.

Take `CCN(CC)c1cccc(COc2c(Br)cc(CCC(=O)O)cc2Br)c1`: the IC50 in assay [1] is 480 nM; in assay [2], 87 nM. Further, the Ratio IC50 in the assay listed under Homo sapiens was determined as 3.2.

Broadly, the EC50 is the concentration that produces a half-maximal response. As to `CCNc1cccc(COc2c(Br)cc(CCC(=O)O)cc2Br)c1`, the results for the half-maximal effective concentration (EC50) in assay [3] and in assay [4] were 23 nM and 49 nM, respectively. The half-maximal inhibitory concentration (IC50) in assay [1] was 78 nM; in assay [2] it was 23 nM. Also, in the assay filed under Homo sapiens, the Ratio IC50 was 3.4.
